Literature values, collected in patent publication US6583123B2, “Aminosugar, glycosaminoglycan, and S-adenosylmethionine composition for the treatment and repair of connective tissue” (Nutramax Laboratories, Inc., priority 1996, dated 2003).

How the values were obtained:
[1] = SAM per se (not stable salts)
[2] = some forms of exogenous SAM, given orally
[3] = oral, humans, versus placebo
[4] = not given; remark: listed apart in the source
fibroblasts = settings: in vitro
wound healing = settings: topical application, in vivo
osteoarthritis = settings: humans with osteoarthritis

[Mn+2] [manganese]
dietary manganese absorbed by the body tissue: Approximately 40%

C[S+](CC[C@H](N)C(=O)[O-])C[C@H]1O[C@@H](n2cnc3c(N)ncnc32)[C@H](O)[C@@H]1O (stereo partly shown) [SAM, S-Adenosylmethionine]
stability [1]: unstable
stability in digestive juices [2]: stable in digestive juices
tolerability [3]: tolerated to the same extent as placebo

Nc1ncnc2c1ncn2[C@@H]1O[C@H](CO)[C@@H](O)[C@H]1O [adenosine]
anti-inflammatory effect (inflammation): more modest anti-inflammatory effect

N[C@H]1C(O)O[C@H](CO)[C@@H](O)[C@@H]1O (stereo partly shown) [Glucosamine]
absorption after oral administration ([4]; humans and animals): rapidly absorbed
tissue localization of ingested glucosamine ([4]; oral): localizes to cartilage and joint tissues
synthesis of collagen and glycosaminoglycans (fibroblasts): increase the synthesis of collagen and glycosaminoglycans
wound healing (wound healing): enhanced wound healing
symptoms and cartilage integrity (osteoarthritis): reproducible improvement in symptoms and cartilage integrity
